According to patent publication US20160193240A1, “Ulmoside-A: Useful For Prevention Or Cure Of Metabolic Diseases” (COUNCIL OF SCIENTIFIC & INDUSTRIAL RESEARCH, priority 2013, published 2016):
Marks after values point to notes of the source that are not given here.

How the values were obtained:
pAMPK, pACC and pP38 = test: AMPK, ACC and p38 phosphorylation by western blot in C2C12 myotubes; assay type: cell-based, mouse; details: 10 nM
Experimental: A. ULMA induces rapid AMPK and p38MAPK signaling. C2C12 myotubes in 10 cm dishes were treated with vehicle (0.1% vol/vol DMSO; 0 min) or 10 nM ULMA for different time points ranging from 1 min to 24 h (final concentration of DMSO in all wells were 0.1% vol/vol). Following treatment, the cells were washed with ice-cold PBS and then lysed. The total protein was estimated by Bradford assay and equal amount of protein (50 μg) was resolved by denaturing polyacrylamide gel electrophoresis and western blotted to determine pAMPK, pACC and pP38 level. Total AMPK, total ACC or total P38 levels were used as loading controls. Data is representative of three independent experiments displaying identical pattern (right panel depicts densitometry from 3 experiments).
B. AdipoR1 overexpression enhances ULMA effect on AMPK and p38 MAPK signaling. C2C12 myoblasts growing in T75 flasks were trypsinized and transfected with […] of either empty vector (pcDNA3) or AdipoR1 expression plasmid using lipofectamine LTX transfection reagent and then the cells were plated in 10 cm dishes. 24 h following transfection, cells were incubated in differentiation medium and maintained in the same medium for 96 h when the cells differentiated fully into myotubes. These cells were then treated with vehicle (DMSO) or ULMA (10 nM) for 10 mins. The cells were then lysed and western blotted for the indicated proteins. Data is representative of three independent experiments displaying identical pattern.
C. Knockdown of AdipoR1 abrogates ULMA effect on AMPK and p38 signalling. C2C12 myotubes in 6 well plates were transfected with 100 nM non-silencing control or AdipoR1 siRNAs using DharmaFECT 1 transfection reagent (Thermo). 72 h following transfection, cells were treated with vehicle (DMSO) or ULMA (10 nM) for 10 min and were western blotted to evaluate pAMPK, pACC, p38, AdipoR1, and R2 status. Total AMPK, ACC, p38 and beta-actin were used as loading controls.
C2C12 myotubes in 10 cm dishes were treated with vehicle (0.1% DMSO; 0 min) or 10 nM ULMA for different time points ranging from 1 min to 24 hour. Following treatment, the cells were washed with ice-cold PBS and then lysed in lysis buffer [1M NaCl, 50 mM HEPES and 0.1% triton X 100 containing 1× protease inhibitor cocktail and 1× phosphates inhibitor cocktail (Sigma)]. The total protein was estimated by Bradford assay and equal amount of protein (50 μg) was resolved by denaturing polyacrylamide gel electrophoresis and western blotted for determination of pAMPK, pACC and pP38 levels (in all the cases the primary antibodies were used in 1:1000 dilution and all the antibodies were from Cell signaling technology). Total AMPK, ACC and p38 expressions were also detected and used as loading controls (all the antibodies were from Cell signaling technology and were used in 1:1000 dilution). […] To evaluate if AdipoRs are indeed involved in the regulation of these pathways by ULMA, C2C12 myoblasts growing in T75 flasks were trypsinized and transfected with 10 μg of either empty vector (pcDNA3) or AdipoR1 expression plasmid using lipofectamine LTX transfection reagent and then the cells were plated in 10 cm dishes. 24 hours following transfection, cells were incubated in differentiation medium and were maintained in the same medium for 96 hours when the cells fully differentiated into myotubes. These cells were then treated with vehicle (DMSO) or ULMA (10 nM) for 10 min. The cells were then lysed (as mentioned above) and western blotted. […] This was further validated in knockdown experiments where C2C12 myotubes in 6 well plates were transfected with 100 nM non-silencing control or AdipoR1 siRNAs using DharmaFECT 1 transfection reagent (Thermo). 72 hours following transfection, cells were treated with vehicle (DMSO) or ULMA (10 nM) for 10 min and were western blotted to evaluate pAMPK, pACC, pP38, AdipoR1, and R2 status.

wistar rats [1] = test: Dexamethasone-induced skeletal muscle atrophy in rats (limb appearance, QRT-PCR of PGC-1α and atrogenes); assay type: in vivo, rat
Experimental: Following 15 d indicated treatment of rats, the skeletal muscle (pulled hind limb) were collected and RNA was extracted from them and QRT-PCR was performed in a Roche lightcycler 480 machine. Data represents mean+/−SEM from six animals done in triplicates. “a” statistical analysis between Vehicle and Dexamethasone-treated groups, “b”, statistical analysis between dex-treated and dex+ ULMA groups. P<0.05, as determined by student's t-test, n=6.
Blood was collected from cardiac punctures.
RNA was isolated from skeletal muscles using Trizol (according to manufacturers' protocol) and reverse transcribed as described above and either PGC-1α expression or muscle atrophy related genes (atrogenes) expression were examined.

wistar rats [2] = test: Dexamethasone-mediated reduction in serum osteocalcin in rats (ELISA); assay type: in vivo, rat; details: Dex + ULMA, 14 days
Experimental: Food intake was measured daily and the rats were weighed each week. The rats were fasted overnight (O/N) on day 14th and on day 15th oral glucose tolerance test was performed. Following oral glucose tolerance test (OGTT), rats were kept with food and water ad libitum for one day. On day 16th, rats were fasted again O/N and then euthanized. At autopsy, from 5 animals/group, tissues were collected and snap frozen in liquid nitrogen. Blood was collected from cardiac punctures. Plasma was separated from whole blood by centrifugation at 3000 rpm for 20 min immediately after collection of blood and stored at −80° C. until further analysis. […] (quadriceps) skeletal muscles were processed for RNA and protein extraction, followed by quantitative real-time PCR (QRT-PCR) analysis. Two animals from each group were used for photography post autopsy.

db/db mice = test: Random (fed) blood glucose in db/db mice; assay type: in vivo, mouse; details: 5 mg/kg ULMA for 15 d
Experimental: 8 week old db/db mice were treated with vehicle (V; 1% gum acacia) or with 5 mg/kg ULMA for 15 days and the fed blood glucose was measured by a glucometer (Gluco Dr. Super sensor; that is capable of measuring 10-900 mg/dl glucose) ** p<0.01, ***p<0.005, n=6.
8 week old female db/db mice (n=6) weighing 40-50 g were divided into 2 groups and maintained as above. Control groups received vehicle (1% gum acacia) and ULMA groups received 5 mg/kg bw ULMA in 1% gum acacia for […]. Body weight and blood glucose were measured at the beginning and end of the studies.

O=C1c2c(cc(O)c([C@@H]3O[C@H](CO)[C@@H](O)[C@H](O)[C@H]3O)c2O)O[C@@H](c2ccc(O)c(O)c2)[C@@H]1O [ULMA, (2S,3S)-(+)-3′,4′,5,7-tetrahydroxydihydroflavonol-6-C-β-D-glucopyranoside]
phosphorylation of ACC (pAMPK, pACC and pP38; 1 min to 24 hour): rapid and robust phosphorylation | phosphorylation of AMPK (pAMPK, pACC and pP38; 1 min to 24 hour): rapid and robust phosphorylation | phosphorylation of p38 (pAMPK, pACC and pP38; 1 min to 24 hour): phosphorylated | response on AMPK, ACC and p38 phosphorylation with siAdipoR1 (pAMPK, pACC and pP38; 10 min, 100 nM AdipoR1 siRNA): completely obliterated ULMA response | effect on AMPK and p38 MAPK signaling with AdipoR1 overexpression (pAMPK, pACC and pP38; 10 min, AdipoR1 expression plasmid vs empty vector): robust increase in effect of ULMA | AMPK, ACC and p38 phosphorylation with control siRNA (siC) (pAMPK, pACC and pP38; 10 min, non-silencing control siRNA): phosphorylated AMPK, ACC and P38 | Dex-caused reduction of skeletal muscle PGC-1α level (wistar rats [1]; Dex + ULMA): protected | protection against induction of atrogenes by dexamethasone (wistar rats [1]; Dex + ULMA): completely protected | skeletal muscle PGC-1α expression (wistar rats [1]; ULMA alone): robust induction | Dex-induced limb abnormality (wistar rats [1]; ULMA co-treatment with Dex): prevented it | Osteocalcin (ng/ml) (wistar rats [2]): 387.7 ± 16.1^a ng/ml | fed blood glucose in comparison to vehicle treated control mice (db/db mice): significantly reduced fed blood glucose
